Where “and” joins values, the source holds several entries; their conditions need not be identical. Equal entries are not always repeated. Where two headings read alike, the source gives them in different places.
Columns and labels:
T. hyodysenteriae [1] = test: MIC of M139603 against thirteen T. hyodysenteriae isolates vs salinomycin and dimetridazole (Example 1, Table 1); format: cell-based, Treponema hyodysenteriae; settings: for MIC: Brachyspira hyodysenteriae
Procedure: The minimum inhibitory concentration of M139603 was tested in parallel with dimetridazole (May & Baker) and the growth-promoting polyether antibiotic salinomycin (Hoechst) against thirteen strains of T. hyodysenteriae.

T. hyodysenteriae [2] = test: Comparative efficacy of M139603 and salinomycin in experimentally infected mice (Example 3, Table 3); format: in vivo, mice (strain MF-1); settings: 30 ppm feed
Source text: (§1) The infection leads to varying degrees of caecitis, the lesions of which are apparent in animals killed on or about the sixth day post-infection. Caecal specimens examined by bacteriological culture techniques applicable for enumeration of organisms reveal the presence of high populations of T.hyodysenteriae. This disease-model was used in experiments to compare the efficacy of M139603 with that of salinomycin, lasalocid and monensin in suppressing the infection.
(§2) In this study, the efficacy of M139603 was tested at 25 ppm feed and that of monensin (Eli Lilly) at 50 or 100 ppm. Groups of infected mice, five per group, were offered the drugs in the feed on five continuous days before killing. Caecal materials were subjected to bacteriological examination to enumerate the populations of viable treponemes per gram of material. […] The group mean in respect of the unmedicated groups was 7.9 cfu/g.
In this study, the efficacy of M139603 was tested at 30 ppm and that of salinomycin at 30, 40 or 60 ppm feed. The mouse-groups and test-procedureswere simi-ar to those applied under Example 2 above.

T. hyodysenteriae [3] = test: Comparative efficacy of M139603 and monensin in experimentally infected mice (Example 2, Table 2); format: in vivo, mice (strain MF-1); settings: 25 ppm feed
Source text: as §1, §2

T. hyodysenteriae [4] = test: Comparative efficacy of M139603 and lasalocid in experimentally infected mice (Example 4, Table 4); format: in vivo, mice (strain MF-1); settings: 20 ppm feed
Source text: as §1, §2
In this study, the efficacy of M139603 was tested at 20 ppm feed and that of lasalocid (Hoffman la Roche) at 20, 40 and 80 ppm. The test procedures were similar to those above except for the size of the inoculum of T.hyodysenteriae (1.2×10^7 cfu) used in infecting each mouse. […] The mean (log10) counts of viable treponemes found in the caecal contents of the various groups were: 2.5 cfu/g caecum (139603 at 20 ppm), 7.35 cfu (lasalocid at 20 ppm), 7.45 cfu (lasalocid at 40 ppm), 3.81 cfu (lasalocid at 80 ppm) and 8.50 cfu (unmedicated control).

CO[C@@H](C)[C@H]1C[C@H](C)[C@H]([C@@H](C)/C=C/[C@@H]2CC[C@@H](C)[C@H](/C(=C/[C@H]3CCC[C@@H](C)[C@@H]3[C@H](C)C(=O)C3=C(O)COC3=O)CO)O2)O1 [Analogue M139603, tetronasin]
MIC (T. hyodysenteriae [1]; isolate B78, read-out: MIC): 0.5 µg/mL
MIC (T. hyodysenteriae [1]; isolate S82/6, read-out: MIC): 0.2 µg/mL
MIC (T. hyodysenteriae [1]; isolate S82/7, read-out: MIC): 0.2 µg/mL
MIC (T. hyodysenteriae [1]; isolate S83/1, read-out: MIC): < 0.1 µg/mL
MIC (T. hyodysenteriae [1]; isolate S83/2, read-out: MIC): 0.5 µg/mL
MIC (T. hyodysenteriae [1]; isolate S83/5, read-out: MIC): < 0.1 µg/mL
MIC (T. hyodysenteriae [1]; isolate S85/1, read-out: MIC): 0.2 µg/mL
MIC (T. hyodysenteriae [1]; isolate S85/2, read-out: MIC): 0.2 µg/mL
MIC (T. hyodysenteriae [1]; isolate S85/3, read-out: MIC): 0.2 µg/mL
MIC (T. hyodysenteriae [1]; isolate S85/8, read-out: MIC): 0.2 µg/mL
MIC (T. hyodysenteriae [1]; isolate S85/9, read-out: MIC): < 0.1 µg/mL
MIC (T. hyodysenteriae [1]; isolate S86/1, read-out: MIC): < 0.1 µg/mL
MIC (T. hyodysenteriae [1]; isolate S86/2, read-out: MIC): 0.2 µg/mL
MIC (T. hyodysenteriae [1]; mean of 13 strains (table), read-out: Mean MIC): 0.215 µg/mL
MIC compared with salinomycin (statistical analysis) (T. hyodysenteriae [1]; thirteen strains): significantly (p<0.001) lower MIC
Suppression of infection (T. hyodysenteriae [2]): suppressed the infection
Mean (log10) viable treponemes per gram caecum & contents (T. hyodysenteriae [2]; 5 days, group mean): 0 log10 per gram
Viable treponemes per gram caecum & contents (T. hyodysenteriae [2]; 5 days, individual mice): negative
Suppression of infection (T. hyodysenteriae [3]): suppressed the infection
Mean (log10) viable treponemes per gram caecum & contents (T. hyodysenteriae [3]; 5 days, group mean): 0 log10 per gram
Viable treponemes per gram caecum & contents (T. hyodysenteriae [3]; 5 days, individual mice, limit of detection <1.0 × 10^2): negative
Complete suppression of infection (T. hyodysenteriae [4]): completely suppressed the infection in two mice
Efficacy compared with lasalocid at 80 ppm (T. hyodysenteriae [4]): greater than that of lasalocid at 80 ppm
Mean (log10) viable treponemes per gram caecal contents (T. hyodysenteriae [4]; 5 days, group mean (table)): 1.62 log10 per gram
Viable treponemes per gram caecal contents (T. hyodysenteriae [4]; 5 days, individual mice): 0 per gram and 4.3 × 10^3 per gram and 3.0 × 10^2 per gram and 1.0 × 10^2 per gram
Mean (log10) count of viable treponemes in caecal contents (T. hyodysenteriae [4]; log10): 2.5 cfu/g caecum
Reduction of T. hyodysenteriae populations (T. hyodysenteriae [4]; other three mice): markedly reduced
